Measured values reported in ChEMBL document CHEMBL1201862, “PubChem BioAssay data set” (2004).
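Tested at 5 concentrations; 48 h exposure; 96-well plates; endpoints linearly interpolated, else capped at highest concentration. GI50 is the concentration that inhibits growth by half.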 The source made the active and inactive calls. Cut-off read from the data, not from the text of the source: active = GI50 up to about 1.1 µM and inactive = higher.

Tests used:
Experiment in all cases: NCI tumour cell line growth inhibition, 48 h
[1] = system: CCRF-CEM
[2] = system: COLO 205
[3] = system: HL-60
[4] = system: HOP-62
[5] = system: HOP-92
[6] = system: KM12
[7] = system: M14
[8] = system: NCI-H460
[9] = system: NCI-H522
[10] = system: OVCAR-8
[11] = system: SF-539
[12] = system: SK-MEL-2
[13] = system: SNB-19
[14] = system: SNB-75
[15] = system: SR
[16] = system: U-251
[17] = system: UACC-62
[18] = system: OVCAR-3

Measured: GI50

O=C(CSC(=S)N1CCCCC1)Nc1nc2c(s1)CCCC2
inactive: [1] 29.4 µM | [2] 33.3 µM | [3] 12.1 µM | [4] 91.4 µM | [5] 39.1 µM | [6] 57.4 µM | [7] 66.5 µM | [8] 15.1 µM | [9] 29.5 µM | [10] 58.1 µM | [11] 34 µM | [12] > 100 µM | [13] 71.1 µM | [14] > 100 µM | [15] 6.4 µM | [16] 29.2 µM

C/C(=C\CBr)CCC(Br)C(C)(C)Cl (stereo unspecified)
inactive: [2] > 100 µM | [4] > 100 µM | [5] > 100 µM | [6] > 100 µM | [7] > 100 µM | [8] > 100 µM | [9] > 100 µM | [10] > 100 µM | [11] > 100 µM | [12] > 100 µM | [14] > 100 µM | [15] > 100 µM | [16] > 100 µM | [17] > 100 µM

CC(C)(C)c1cc(C#N)c2c(c1)C(=O)OC2(c1ccccc1)c1ccccc1C#N (stereo unspecified)
inactive: [1] > 100 µM | [2] > 100 µM | [3] 7.38 µM | [4] > 100 µM | [6] 43 µM | [7] > 100 µM | [8] > 100 µM | [9] 12.3 µM | [18] 94.6 µM | [10] > 100 µM | [11] > 100 µM | [12] > 100 µM | [13] > 100 µM | [14] 42.8 µM | [15] 20.8 µM | [16] > 100 µM | [17] > 100 µM

COc1cc(Oc2c(O)c(C)c(OC)c(C(C)=O)c2O)c(C(C)=O)c(O)c1C
inactive: [1] > 100 µM | [2] 60.1 µM | [4] 34.3 µM | [5] 44.6 µM | [6] 65.3 µM | [7] 64.3 µM | [8] 46.9 µM | [9] 12.9 µM | [18] 43 µM | [10] 51.6 µM | [11] 62.2 µM | [13] 63 µM | [14] > 100 µM | [15] > 100 µM | [16] 44.2 µM | [17] 40.5 µM

O=C(NC1CCCCC1)c1c(O)[nH]c(=S)[nH]c1=O
inactive: [1] > 100 µM | [2] > 100 µM | [4] > 100 µM | [5] 96.8 µM | [6] > 100 µM | [7] > 100 µM | [8] 57 µM | [9] > 100 µM | [18] > 100 µM | [10] 89.7 µM | [11] > 100 µM | [12] > 100 µM | [13] > 100 µM | [14] > 100 µM | [15] > 100 µM | [16] 88.5 µM | [17] > 100 µM

COc1ccc(C(c2c(O)c3ccccc3n(C)c2=O)c2c(O)c3ccccc3n(C)c2=O)cc1
inactive: [2] 57.3 µM | [3] 31.6 µM | [5] 22.6 µM | [6] 22.4 µM | [7] 34.9 µM | [8] > 100 µM | [9] 9.77 µM | [18] 33 µM | [10] 81.1 µM | [11] 24.5 µM | [12] > 100 µM | [13] 39.5 µM | [14] 16.1 µM | [15] 51.4 µM | [16] 19.1 µM | [17] 13.2 µM

CCOc1ccc2c(c1)[n+]([O-])c(-c1ccc([N+](=O)[O-])cc1)c(N)[n+]2[O-]
inactive: [1] 49.7 µM | [2] > 100 µM | [3] 96.8 µM | [4] > 100 µM | [5] > 100 µM | [6] > 100 µM | [7] > 100 µM | [8] > 100 µM | [9] 56.4 µM | [18] > 100 µM | [10] > 100 µM | [11] > 100 µM | [12] > 100 µM | [13] > 100 µM | [14] 66.4 µM | [15] 67 µM | [16] > 100 µM

CCCCn1c(-c2ccccc2)cs/c1=N\NC(=O)Cn1c(C)nc2ccccc21
inactive: [1] 17.9 µM | [2] 17.1 µM | [3] 14.4 µM | [4] > 100 µM | [6] 70.8 µM | [7] 53.2 µM | [8] 76.7 µM | [9] 30.2 µM | [18] 40.6 µM | [10] > 100 µM | [11] > 100 µM | [12] > 100 µM | [13] > 100 µM | [14] 60.1 µM | [15] 11.5 µM | [16] 96.2 µM | [17] 58.6 µM

CC(C)(C)OC(=O)NC1CCC[C@H]1O (stereo partly specified)
inactive: [1] > 100 µM | [4] > 100 µM | [5] > 100 µM | [6] > 100 µM | [7] > 100 µM | [8] > 100 µM | [9] > 100 µM | [18] > 100 µM | [10] > 100 µM | [11] > 100 µM | [12] > 100 µM | [13] > 100 µM | [14] 47.3 µM | [15] > 100 µM | [16] > 100 µM | [17] > 100 µM
